Experimental data from US20060052376A1, “Carboxamides” (Merck Patent GmbH, priority 2002, published 2006).

Legend:
[1] = biological target: TF/FVIIa (Homo sapiens, UniProt P08709); assay: TF/FVIIa inhibition (TF/FVIIa-IC50); format: biochemical
Text: Coagulation factor VIIa initiates the extrinsic part of the coagulation cascade after binding to tissue factor and contributes to the activation of factor X to give factor Xa. Inhibition of factor Vila thus prevents the formation of factor Xa and thus subsequent thrombin formation. The inhibition of factor Vila by the compounds according to the invention and the measurement of the anticoagulant and antithrombotic activity can be determined by conventional in-vitro or in-vivo methods. A conventional method for the measurement of the inhibition of factor VIIa is described, for example, by H. F. Ronning et al. in Thrombosis Research 1996, 84, 73-81.

[2] = biological target: FXa (Homo sapiens, UniProt P00742); assay: Factor Xa inhibition (FXa-IC50); format: biochemical
Text: The inhibition of factor Xa by the compounds according to the invention and the measurement of the anticoagulant and antithrombotic activity can be determined by conventional in-vitro or in-vivo methods. A suitable method is described, for example, by J. Hauptmann et al. in Thrombosis and Haemostasis 1990, 63, 220-223.
The inhibition of factor Xa can be measured, for example by the method of T. Hara et al. in Thromb. Haemostas. 1994, 71, 314-319.

FXa, sequence (P00742 235-488 limits assumed): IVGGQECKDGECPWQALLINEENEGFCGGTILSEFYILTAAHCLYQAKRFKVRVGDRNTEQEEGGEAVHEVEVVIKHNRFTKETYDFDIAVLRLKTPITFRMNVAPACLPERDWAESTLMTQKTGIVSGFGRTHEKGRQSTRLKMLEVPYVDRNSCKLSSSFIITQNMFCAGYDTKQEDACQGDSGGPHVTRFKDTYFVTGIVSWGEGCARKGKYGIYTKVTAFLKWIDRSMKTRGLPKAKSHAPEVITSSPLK
FXa, sequence (P00742 41-179 partner limits assumed): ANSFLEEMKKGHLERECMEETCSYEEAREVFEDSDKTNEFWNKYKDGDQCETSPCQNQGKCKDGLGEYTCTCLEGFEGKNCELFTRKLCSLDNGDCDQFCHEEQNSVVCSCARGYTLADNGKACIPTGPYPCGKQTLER
TF/FVIIa, sequence (P08709 213-466 limits assumed): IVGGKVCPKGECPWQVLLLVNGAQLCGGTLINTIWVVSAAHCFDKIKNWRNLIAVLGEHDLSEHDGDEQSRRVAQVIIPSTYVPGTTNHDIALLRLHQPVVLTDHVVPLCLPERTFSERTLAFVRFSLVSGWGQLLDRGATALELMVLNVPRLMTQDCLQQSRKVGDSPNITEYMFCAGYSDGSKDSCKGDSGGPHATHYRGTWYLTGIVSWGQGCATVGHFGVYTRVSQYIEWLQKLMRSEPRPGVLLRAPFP
TF/FVIIa, sequence (P08709 61-212 partner limits assumed): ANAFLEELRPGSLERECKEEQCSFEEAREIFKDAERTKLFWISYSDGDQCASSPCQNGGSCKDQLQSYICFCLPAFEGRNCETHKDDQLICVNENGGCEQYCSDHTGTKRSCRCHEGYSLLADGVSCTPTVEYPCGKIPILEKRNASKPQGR
TF/FVIIa, sequence (P13726 33-295 partner): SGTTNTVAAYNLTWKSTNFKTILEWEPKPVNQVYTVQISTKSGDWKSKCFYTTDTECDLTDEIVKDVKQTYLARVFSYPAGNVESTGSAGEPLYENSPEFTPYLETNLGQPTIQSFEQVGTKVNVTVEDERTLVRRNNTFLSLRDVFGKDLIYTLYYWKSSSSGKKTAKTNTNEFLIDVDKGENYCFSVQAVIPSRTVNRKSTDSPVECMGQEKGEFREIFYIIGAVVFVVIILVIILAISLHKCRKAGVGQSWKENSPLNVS

IC50 [1] [nM] | IC50 [2] [nM] | SMILES
6.9 | 7.3 | Cc1cc(NC(=O)[C@@H](CC(C)C)NC(=O)c2ccc(Cl)s2)ccc1N1CCOCC1=O [Compound 1A, (R)-2-[(5-chlorothiophene-2-carbonyl)amino]-N-[3-methyl-4-(3-oxomorpholin-4-yl)phenyl]-4-methylvaleramide]
 | 39 | CC(C)C[C@@H](NC(=O)c1ccc(Cl)s1)C(=O)Nc1ccc(-n2ccncc2=O)cc1 [Compound 2A, (R)-2-[(5-chlorothiophene-2-carbonyl)amino]-N-[4-(2-oxo-2H-pyrazin-1-yl)phenyl]4-methylvaleramide]
 | 25 | CC(C)C[C@@H](NC(=O)c1ccc(Cl)s1)C(=O)Nc1ccc(N2CCCCC2=N)cc1 [Compound 4A, (R)-2-[(5-chlorothiophene-2-carbonyl)amino]-N-[4-(2-iminopiperidin-1-yl)phenyl]-4-methylvaleramide]
 | 260 | CC(C)C[C@H](NC(=O)c1ccc(Cl)s1)C(=O)Nc1ccc(N2CCCCC2=N)cc1 [Compound 4B, (S)-2-[(5-chlorothiophene-2-carbonyl)amino]-N-[4-(2-iminopiperidin-1-yl)phenyl]-4-methylvaleramide]
